# Data published in ChEMBL document CHEMBL1158861, “Zanhasaponins A and B, antiphospholipase A2 saponins from an antiinflammatory extract of Zanha africana root bark” (J Nat Prod, 1997).
# What was measured:
# [1] = molecular target: Acidic phospholipase A2 2 (Naja naja) (UniProt P15445); settings: 1.3 nM
# Description: Inhibition of Naja Naja PLA2 at 1.3 nM
# [2] = molecular target: Acidic phospholipase A2 2 (Naja naja) (UniProt P15445); assay: Inhibition of Naja Naja PLA2 at […]
# [3] = system: Mus musculus; assay: Antiinflammatory activity against TPA-induced ear edema in Swiss mouse assessed as reduction in ear thickness at 0.05 mg/ear after 10 days; assay type: functional; parameters: scale not given: the % may be the effect or the level left
# [4] = species: Mus musculus; assay: Effect on oxazolone-induced delayed type hypersensitivity in Swiss mouse assessed as reduction in ear thickness at 0.05 mg/ear after 24 hrs; assay type: functional; parameters: scale not given: the % may be the effect or the level left
# [5] = species: Mus musculus; assay: Effect on oxazolone-induced delayed type hypersensitivity in Swiss mouse assessed as reduction in ear thickness at 0.05 mg/ear after 48 hrs; assay type: functional; parameters: scale not given: the % may be the effect or the level left
# [6] = species: Mus musculus; assay: Effect on oxazolone-induced delayed type hypersensitivity in Swiss mouse assessed as reduction in ear thickness at 0.05 mg/ear after 72 hrs; assay type: functional; parameters: scale not given: the % may be the effect or the level left
# [7] = species: Mus musculus; assay: Effect on oxazolone-induced delayed type hypersensitivity in Swiss mouse assessed as reduction in ear thickness at 0.05 mg/ear after 96 hrs; assay type: functional; parameters: scale not given: the % may be the effect or the level left
# [8] = species: Mus musculus; assay: Effect on oxazolone-induced delayed type hypersensitivity in Swiss mouse assessed as reduction in ear thickness at 0.05 mg/ear after 102 hrs; assay type: functional; parameters: scale not given: the % may be the effect or the level left
# [9] = molecular target: Acidic phospholipase A2 2 (Naja naja, UniProt P15445); assay: Inhibition of Naja Naja PLA2
# Acidic phospholipase A2 2, sequence (P15445 whole entry): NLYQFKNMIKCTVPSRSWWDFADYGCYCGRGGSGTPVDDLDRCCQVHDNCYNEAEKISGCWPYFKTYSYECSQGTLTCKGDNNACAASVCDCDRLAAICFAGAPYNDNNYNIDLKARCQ
# [10] = system: Mus musculus; assay: Antiinflammatory activity against Arachidonic acid-induced ear edema in Swiss mouse assessed as reduction in ear thickness at 2 mg/ear; assay type: functional; parameters: scale not given: the % may be the effect or the level left
# Acidic phospholipase A2 2 (Naja naja), sequence (P15445 whole entry): as above
compound,measurement,setting,value
CO[C@H]1[C@H](O)[C@@H](O)[C@H](O)[C@H](O)[C@H]1O,inhibition,[1],45%
C[C@@H]1O[C@@H](O[C@H]2[C@H](OC(=O)[C@]34CCC(C)(C)C[C@H]3C3=CC[C@@H]5[C@@]6(C)C[C@H](O)[C@H](O[C@@H]7O[C@H](C(=O)O)[C@@H](O)[C@H](O)[C@H]7O)[C@@](C)(C(=O)O)[C@@H]6CC[C@@]5(C)[C@]3(C)C[C@H]4O)O[C@@H](C)[C@H](O)[C@H]2O)[C@H](O[C@@H]2OC[C@@H](O)[C@H](O[C@@H]3OC[C@@H](O)[C@H](O)[C@H]3O)[C@H]2O)[C@H](O)[C@H]1O,inhibition,[2],30%
C[C@@H]1C[C@H]2[C@@H]3CCC4=CC(=O)C=C[C@]4(C)[C@@]3(F)[C@@H](O)C[C@]2(C)[C@@]1(O)C(=O)CO [DEXAMETHASONE],Activity,[3],81%
same,Activity,[4],76%
same,Activity,[5],89%
same,Activity,[6],93%
same,Activity,[7],81%
same,Activity,[8],84%
CO[C@H]1[C@H](O)[C@@H](O)[C@@H](O)[C@H](O)[C@@H]1O [METHYLINOSITOL],IC50,[9],1920 µM
CC(Cc1ccc(O)c(O)c1)C(C)Cc1ccc(O)c(O)c1 (configuration not stated) [NORDIHYDROGUAIARETIC ACID],Activity,[10],50%
C[C@@H]1O[C@@H](O[C@H]2[C@H](OC(=O)[C@]34CCC(C)(C)C[C@H]3C3=CC[C@@H]5[C@@]6(C)C[C@H](O)[C@H](O[C@@H]7O[C@H](C(=O)O)[C@@H](O)[C@H](O)[C@H]7O)[C@@](C)(C(=O)O)[C@@H]6CC[C@@]5(C)[C@]3(C)C[C@H]4O)O[C@@H](C)[C@H](O)[C@H]2O)[C@H](O)[C@H](O)[C@H]1O [ZANHASAPONIN A],IC50,[9],470 µM
C[C@@H]1O[C@@H](O[C@H]2[C@H](OC(=O)[C@]34CCC(C)(C)C[C@H]3C3=CC[C@@H]5[C@@]6(C)C[C@H](O)[C@H](O[C@@H]7O[C@H](C(=O)O)[C@@H](O)[C@H](O)[C@H]7O)[C@@](C)(C(=O)O)[C@@H]6CC[C@@]5(C)[C@]3(C)C[C@H]4O)O[C@@H](C)[C@H](O)[C@H]2O)[C@H](O[C@@H]2OC[C@@H](O)[C@H](O)[C@H]2O)[C@H](O)[C@H]1O [ZANHASAPONIN B],IC50,[9],440 µM
